Measured values published in patent publication US11945822B2, “Pyrazolo-triazine and/or pyrazolo-pxrimidine derivatives as selective inhibitor of cyclin dependent kinase” (QURIENT CO., LTD., priority 2018, dated 2024).

What was measured:
[1] = target: T1, CDK1/Cyclin B (Homo sapiens, UniProt P06493); test: Enzymatic assay for CDK1 (FRET based LANCE Ultra kinase assay); type: biochemical; details: read-out: CDK1 enzymatic activity (IC50 range)
T1 construct: purchased Invitrogen PR4768C
In short: (§1)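 Each CDK complex ([…]) phosphorylated 68 nM ULight-MBP peptide with ATP at Km for 60 min at 23° C., against 8 compound doses (4-fold dilutions). EDTA/Eu-anti-phospho-MBP detection, 60 min, then TR-FRET emission at 615 and 665 nm.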

[2] = target: T2, CDK2/Cyclin A (Homo sapiens, UniProt P24941); test: Enzymatic assay for CDK2 (FRET based LANCE Ultra kinase assay); type: biochemical; details: read-out: CDK2 enzymatic activity (IC50 range)
T2 construct: purchased Invitrogen PV6290
In short: as §1

[3] = target: T3, CDK5/p25 (Homo sapiens, UniProt Q00535); test: Enzymatic assay for CDK5 (FRET based LANCE Ultra kinase assay); type: biochemical; details: read-out: CDK5 enzymatic activity (IC50 range)
T3 construct: purchased Invitrogen PR8543B
T3 sequence (Q00535 whole entry): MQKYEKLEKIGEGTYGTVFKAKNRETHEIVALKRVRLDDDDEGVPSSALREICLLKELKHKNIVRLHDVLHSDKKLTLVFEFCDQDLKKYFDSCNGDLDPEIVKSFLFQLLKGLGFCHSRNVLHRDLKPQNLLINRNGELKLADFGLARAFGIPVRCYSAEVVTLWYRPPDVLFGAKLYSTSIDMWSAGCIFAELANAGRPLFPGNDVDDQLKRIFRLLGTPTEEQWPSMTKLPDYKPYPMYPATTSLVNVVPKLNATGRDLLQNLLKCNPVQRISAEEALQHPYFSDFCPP
T3 sequence (Q15078 99-307 partner limits assumed): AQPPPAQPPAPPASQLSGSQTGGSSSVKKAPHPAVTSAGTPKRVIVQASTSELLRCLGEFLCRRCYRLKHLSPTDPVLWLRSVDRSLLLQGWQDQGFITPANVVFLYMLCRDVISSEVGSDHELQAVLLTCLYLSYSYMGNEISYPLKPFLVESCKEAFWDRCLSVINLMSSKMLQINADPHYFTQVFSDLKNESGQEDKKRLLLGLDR
In short: as §1

[4] = target: T4, CDK7/Cyclin H/MNAT1 (Homo sapiens, UniProt P50613); test: Enzymatic assay for CDK7 (FRET based LANCE Ultra kinase assay); type: biochemical
T4 construct: purchased Invitrogen PR6749B
T4 sequence (P50613 whole entry): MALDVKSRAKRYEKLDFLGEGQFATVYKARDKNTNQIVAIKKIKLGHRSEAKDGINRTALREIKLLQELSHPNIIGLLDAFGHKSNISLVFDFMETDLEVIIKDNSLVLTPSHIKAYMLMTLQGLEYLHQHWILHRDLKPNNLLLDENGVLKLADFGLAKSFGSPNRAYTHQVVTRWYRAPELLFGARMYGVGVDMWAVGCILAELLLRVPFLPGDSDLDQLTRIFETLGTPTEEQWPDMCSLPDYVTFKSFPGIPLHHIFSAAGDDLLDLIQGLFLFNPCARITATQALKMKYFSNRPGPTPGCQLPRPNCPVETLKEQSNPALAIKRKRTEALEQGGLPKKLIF
T4 sequence (P51946 whole entry partner): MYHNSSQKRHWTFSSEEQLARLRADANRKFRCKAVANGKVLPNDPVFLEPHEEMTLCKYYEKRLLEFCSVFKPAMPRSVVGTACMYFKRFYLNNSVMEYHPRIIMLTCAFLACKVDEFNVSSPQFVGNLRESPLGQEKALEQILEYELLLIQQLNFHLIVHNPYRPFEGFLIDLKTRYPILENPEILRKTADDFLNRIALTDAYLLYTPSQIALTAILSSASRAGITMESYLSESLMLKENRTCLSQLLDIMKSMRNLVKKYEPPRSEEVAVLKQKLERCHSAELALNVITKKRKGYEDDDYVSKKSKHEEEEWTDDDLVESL
T4 sequence (P51948 whole entry partner): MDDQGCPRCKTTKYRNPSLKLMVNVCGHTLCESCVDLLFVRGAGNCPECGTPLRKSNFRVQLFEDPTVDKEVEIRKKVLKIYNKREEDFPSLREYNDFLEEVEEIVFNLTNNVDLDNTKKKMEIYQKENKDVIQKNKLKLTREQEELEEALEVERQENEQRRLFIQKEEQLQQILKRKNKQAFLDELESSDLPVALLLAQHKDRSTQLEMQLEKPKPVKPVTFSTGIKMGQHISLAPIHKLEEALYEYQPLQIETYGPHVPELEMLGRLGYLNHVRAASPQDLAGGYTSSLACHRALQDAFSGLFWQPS
In short: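 Inhibition was measured at Km ATP by time-resolved FRET between a Eu anti-phospho antibody and a phosphorylated ULight peptide. The enzyme was the purified CDK7/cyclin complex, and data were curve-fitted.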

[5] = test system: HCT116; test: Cellular HCT116 viability assay (CellTiter-Glo, 72 hours); type: cell-based; details: Homo sapiens, HCT-116
In short: (§2)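 Mycoplasma-tested cells, seeded at densities chosen for each line, received compound or DMSO vehicle (under 0.1% final) for 72 hours. Duplicate cultures were then read for viability by CellTiter-Glo luminescence.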

[6] = test system: H460; test: Cellular H460 viability assay (CellTiter-Glo, 72 hours); type: cell-based; details: Homo sapiens, NCI-H460
In short: as §2

[7] = test system: A2780; test: Cellular A2780 viability assay (CellTiter-Glo, 72 hours); type: cell-based; details: Homo sapiens
In short: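 Compound exposure lasted 72 h at 37° C, 5% CO2, over 0.0015–10 uM, DMSO kept under 0.1%, with dosing 24 h after seeding. Seeding: A2780 1×10^3, OVCAR-3 5×10^3, MM.1S 1×10^4 cells/well in 10% FBS RPMI-1640. Duplicate CellTiter-Glo luminescence readout.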

[8] = test system: OVCAR-3; test: Cellular OVCAR-3 viability assay (CellTiter-Glo, 72 hours); type: cell-based; details: Homo sapiens
Source text: Human T-cell acute lymphoblastic leukemia cell line, MOLT-4 (ATCC, Cat #CRL-1582), Human multiple myeloma cell line, RPMI-8226 (Invitrogen, Cat #22400-089) and MM.1S (ATCC, Cat #CRL-2974), NSCLC (Non-small cell lung cancer) cell line H460 (ATCC, Cat #HTB-177), Human colon colorectal carcinoma cell line HCT116 (ATCC, Cat #CCL-247), Human acute monocytic leukemia cell line MV4-11 (ATCC, Cat #CRL-9591), OVCAR-3 (ATCC, Cat #HTB-161) and A2780 (ECACC, Cat #93112519) were obtained from ATCC. Cells were grown in RPMI-1640 media (Invitrogen, Cat #22400-089) supplemented with 10% FBS (Invitrogen, Cat #10099141) and 1% penicillin/streptomycin (Invitrogen, Cat #15070063) and cultured at 37° C., 5% CO2 in a humidified chamber. All cell lines were routinely tested for mycoplasma.
The effect of the CDK7 inhibitor to inhibit the growth of target cancer cells was evaluated through the 72 hours time period of viability assay. Briefly, the candidate cell line ware plated in 96 well plate at the following density of cells respectively. 1×10^4 cells/well for MOLT-4, RPMI-8226, MV4-11 and MM.1S, 5×10^3 for H460, HCT116 and OVCAR-3 and IX 10^3 for A2780. After 24 hours, the cells were treated with various concentrations of the compound (ranging from 0.0015 uM to 10 uM). DMSO solvent without compound served as a control and final DMSO concentration less than 0.1%. After 72 hours of incubation at 37° C., 5% CO2 incubator, cells were analyzed for the viability using the CellTiter-Glo Luminescent Cell Viability Assay (Promega, Cat #G7570). All viability assays were performed in duplicate and Luminescence was read using an Envision (Perkin Elmer, USA). Data was analyzed using XLfit software.

T1 sequence (P06493 whole entry): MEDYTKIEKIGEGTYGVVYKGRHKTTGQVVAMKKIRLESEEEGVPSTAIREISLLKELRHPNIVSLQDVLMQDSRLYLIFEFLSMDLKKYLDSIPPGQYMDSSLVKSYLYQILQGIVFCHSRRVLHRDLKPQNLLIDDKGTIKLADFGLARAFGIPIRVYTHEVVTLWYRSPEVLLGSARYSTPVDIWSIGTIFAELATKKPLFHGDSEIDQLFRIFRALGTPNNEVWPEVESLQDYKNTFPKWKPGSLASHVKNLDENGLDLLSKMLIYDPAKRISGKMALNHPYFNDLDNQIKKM
T1 sequence (P14635 whole entry partner): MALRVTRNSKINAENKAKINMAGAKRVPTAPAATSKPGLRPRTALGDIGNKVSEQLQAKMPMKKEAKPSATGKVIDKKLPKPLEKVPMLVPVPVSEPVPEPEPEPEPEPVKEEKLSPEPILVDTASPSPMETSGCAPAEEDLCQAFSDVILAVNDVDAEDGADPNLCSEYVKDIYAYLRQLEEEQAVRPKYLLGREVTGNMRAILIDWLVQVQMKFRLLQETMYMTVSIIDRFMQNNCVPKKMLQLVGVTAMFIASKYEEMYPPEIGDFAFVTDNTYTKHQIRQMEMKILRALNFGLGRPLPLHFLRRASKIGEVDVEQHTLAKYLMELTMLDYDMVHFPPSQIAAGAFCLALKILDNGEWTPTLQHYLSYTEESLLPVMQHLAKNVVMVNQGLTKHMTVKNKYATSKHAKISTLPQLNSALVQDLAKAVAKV

For `CC(C)c1cnn2c(NCc3c(Cl)cccc3-n3ccc(C(C)(C)O)n3)nc(N3CCC(N)CC3)nc12` [Compound 210], the IC50 [1] was greater than 1000 nM, the IC50 [2] was greater than 1000 nM and the IC50 [3] was 100 to 1000 nM. The “CDK1/CDK7: Selectivity of CDK7 inhibition over CDK1 inhibition” value ([4]; CDK7 over CDK1) was “A (A=greater than 200 fold)”, the “CDK2/CDK7: Selectivity of CDK7 inhibition over CDK2 inhibition” value ([4]; CDK7 over CDK2) was “A (A=greater than 200 fold)” and the “CDK5/CDK7: Selectivity of CDK7 inhibition over CDK5 inhibition” value ([4]; CDK7 over CDK5) was “A (A=greater than 200 fold)”. For the same compound, the IC50 ([4]; read-out: CDK7 enzymatic activity (IC50 range)) was less than 100 nM, the IC50 [5] was less than 1000 nM and the IC50 [6] was less than 1000 nM. For the same compound, the IC50 [7] was no more than 1000 nM and the IC50 [8] was no more than 1000 nM.
